In patent US7858790B2, “Modulators of muscarinic receptors” (Vertex Pharmaceuticals Incorporated, priority 2006, dated 2010):

Assays:
M1 muscarinic receptor = biological target: T1, M1 muscarinic receptor (Homo sapiens, UniProt P11229); test: Functional mobilization of intracellular calcium (FLIPR) in CHO cells expressing M1 muscarinic receptor; type: cell-based; settings: for M1 Activity: CHO cells expressing M1, calcium mobilization; for Emax: CHO, 100% efficacy is the maximum response obtained with the Carbachol control
T1 construct: expressed in transfected cells; host or cells: CHO (M1-CHO recombinant cell line)
T1 sequence (P11229 1-460): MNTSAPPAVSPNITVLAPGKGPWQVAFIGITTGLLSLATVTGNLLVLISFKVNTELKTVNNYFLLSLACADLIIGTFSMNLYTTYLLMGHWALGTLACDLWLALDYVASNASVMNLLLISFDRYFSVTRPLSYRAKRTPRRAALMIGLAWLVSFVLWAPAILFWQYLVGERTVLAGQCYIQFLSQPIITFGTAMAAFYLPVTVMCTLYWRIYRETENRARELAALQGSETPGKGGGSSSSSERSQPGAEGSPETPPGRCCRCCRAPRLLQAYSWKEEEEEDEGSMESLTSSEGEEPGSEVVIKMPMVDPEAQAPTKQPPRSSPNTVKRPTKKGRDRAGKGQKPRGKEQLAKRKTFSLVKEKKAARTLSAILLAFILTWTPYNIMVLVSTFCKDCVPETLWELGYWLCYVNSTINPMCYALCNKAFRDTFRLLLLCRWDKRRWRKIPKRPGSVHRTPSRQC
Description: (§1) VI. Assays for Detecting and Measuring Inhibition Properties of Compounds Functional Mobilization of Intracellular Calcium to Determine Muscarinic Receptor Activity:
(§2) CHO cells expressing muscarinic receptors (M1 to M5) are grown as monolayers in tissue culture flasks at 37° C. in a humidified atmosphere containing 5% CO2 and passaged every 3-5 days. The growth media is Dulbecco's modified eagles medium (DMEM, Gibco Cat# 12430-054), containing 25 mM Hepes and supplemented with Fetal Bovine Serum (Hyclone, cat# SH30071.03), 0.1 mM of MEM non-essential amino acids (GIBCO, Cat# 11140-050), 1 mM MEM Sodium Pyruvate (GIBCO Cat# 11360-070) and 100 units/ml of Penicillin G and 100 μg/ml of Streptomycin (GIBCO Cat# 15140-122). The recombinant muscarinic receptor cell lines are grown under antibiotic pressure with media containing 25 μg/ml zeocin and 500 μg/ml G418 (M1-CHO), 4 μg/ml puromycin, 50 μg/ml zeocin and 2.5 μg/ml blasticidin (M2 and M4-CHO) or 50 μg/ml zeocin and 4 μg/ml puromycin (M3 and M5-CHO).
(§3) Cells are harvested at 80-90% confluence using Versene (GIBCO Cat# 15040-066), collected by centrifugation and seeded 18-24 hours prior to running the calcium assay at a density of 5,000-10,000 cells/well in […], clear-bottomed 384-well plates (BD Biocoat, poly-D-lysine, Cat#356663). The day of the experiment, the cells are washed with a plate washer (Bioteck Instruments, ELX 405) using bath buffer (140-mM NaCl, 4.5-mM KCl, 2-mM CaCl2, 1-mM MgCl2, 10-mM Hepes-Na, 10-mM Glucose, pH 7.4, with NaOH) containing 1 mM Probenecid. Next, the calcium dye Fluo-3 (25 μl/well of Fluo-3 μM at 4 μM, Molecular Probes F-1241, in Bath 1 buffer containing 1 mM Probenecid) is added to the 25 μl of Bath 1 remaining in each well after the plate wash and the dye is loaded at 37° C. in the tissue culture incubator for 60-90 min. The fluorescent dye is removed using the plate washer with Bath 1 containing 1 mM Probenecid, leaving 25 μl/well of this solution after the wash. Alternatively, cells can be loaded with the calcium indicator from Molecular Devices (Calcium 3 Assay Reagents, Cat # R7181) adding 5 μl of a 5× solution dye in Bath 1 containing 1 mM Probenecid (10 ml per dye flask cat# R7182 to generate a solution 20×) to 20 μl of the same buffer. After loading for 60 min, the experiment can be run without having to remove the dye.
(§4) Compounds are prepared at a 2× fold concentration in a 96-well plate (round bottom, Costar Corning cat# 3656), by reconstituting the pre-spotted compounds in bath 1 containing 1 mM probenecid. The final concentration DMSO is 0.5%, and the amount of DMSO is normalized across the assay plate. To determine an agonist action of the compounds on muscarinic receptors, the reconstituted compounds are added (25 μl compound/well) to the cell assay plate (containing 25 μl/well) using the multi-channel robotic system of the FLIPR 3 Instrument (Molecular Devices, Sunnyvale, Calif.). To determine a functional inhibitory-action of the compounds on muscarinic receptors, the reconstituted compounds are added (25 μl compound/well) to the assay plate and pre-incubated for 15 min prior to adding 25 μl of Carbachol at 3× the EC80 for each muscarinic subtype. Alternatively, the compounds can be co-applied simultaneously with the agonist. In both assay modes, the fluorescence is recorded for 60 sec (excitation wavelength is […] and emission wavelength 540 nm) using the FLIPR 3 instrument.
(§5) The potency, efficacy and selectivity of the muscarinic compounds were evaluated by screening the compound activity across the whole family (M1 to M5 cells). Compounds were also screened for activity on other proteins such as other GPCRs and ion channels to determine selectivity on M4 receptors.
(§6) Examples of activities and efficacies of the muscarinic compounds of formulae (I, Ia, and Ib) on modulating M1 and M4 receptors are shown below in Table 8. […]

M4 muscarinic receptor = biological target: T2, M4 muscarinic receptor (Homo sapiens, UniProt P08173); test: Functional mobilization of intracellular calcium (FLIPR) in CHO cells expressing M4 muscarinic receptor; type: cell-based; settings: for M4 Activity: CHO cells expressing M4, calcium mobilization; for Emax: CHO, 100% efficacy is the maximum response obtained with the Carbachol control
T2 construct: expressed in transfected cells; host or cells: CHO (M4-CHO recombinant cell line)
T2 sequence (P08173 1-479): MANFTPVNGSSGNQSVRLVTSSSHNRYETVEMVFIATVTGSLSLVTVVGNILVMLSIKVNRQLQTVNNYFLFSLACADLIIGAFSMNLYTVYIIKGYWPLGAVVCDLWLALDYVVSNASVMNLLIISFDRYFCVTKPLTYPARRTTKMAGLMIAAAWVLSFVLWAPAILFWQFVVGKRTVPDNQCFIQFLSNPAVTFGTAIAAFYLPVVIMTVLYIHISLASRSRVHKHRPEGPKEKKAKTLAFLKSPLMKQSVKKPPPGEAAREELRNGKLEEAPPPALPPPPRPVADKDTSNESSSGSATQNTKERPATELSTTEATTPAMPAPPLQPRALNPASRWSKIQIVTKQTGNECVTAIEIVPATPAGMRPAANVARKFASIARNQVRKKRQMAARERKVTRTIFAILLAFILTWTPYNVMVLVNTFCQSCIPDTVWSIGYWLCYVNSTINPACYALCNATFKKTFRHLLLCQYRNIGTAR
Description: as §1, §2, §3, §4, §5, §6

Structure (SMILES)	M1 Activity (M1 muscarinic receptor)	Emax (M1 muscarinic receptor) [%]	M4 Activity (M4 muscarinic receptor)	Emax (M4 muscarinic receptor) [%]
CNC(=O)C1=CC2(CCN(CCC3CCSCC3)CC2)c2ccccc21 [compound 9]	+ (activity was measured to be greater than 10.0 μM)	25 to 100	+ (activity was measured to be greater than 10.0 μM)	< 25
CC(C)(C)CCN1CCC2(CC=C(C(=O)N3CCCC3)c3ccccc32)CC1 [compound 11]	++ (activity was measured to be from 2.0 μM to 10.0 μM)	25 to 100	++ (activity was measured to be from 2.0 μM to 10.0 μM)	< 25
CN(C)C(=O)C1=CC2(CCN(C3CCCCCC3)CC2)c2ccccc21 [compound 44]	+ (activity was measured to be greater than 10.0 μM)	25 to 100	+++ (activity was measured to be less than 2.0 μM)	25 to 100
CCC(CC)NC(=O)C1=CC2(CCN(C3CCN(C(C)=O)CC3)CC2)c2ccccc21 [compound 10]	+ (activity was measured to be greater than 10.0 μM)	< 25	+ (activity was measured to be greater than 10.0 μM)	< 25
CCC(CC)NC(=O)C1=CC2(CCN(C3CCN(C(=O)C(C)C)CC3)CC2)c2ccccc21 [compound 22]	+ (activity was measured to be greater than 10.0 μM)	< 25	+ (activity was measured to be greater than 10.0 μM)	< 25
CCC(CC)NC(=O)C1=CC2(CCN(C3CCCC3)CC2)c2ccccc21 [compound 17]	+ (activity was measured to be greater than 10.0 μM)	< 25	+ (activity was measured to be greater than 10.0 μM)	25 to 100
CCC(CC)NC(=O)C1=CC2(CCN(C3CCNCC3)CC2)c2ccccc21 [compound 7]	+ (activity was measured to be greater than 10.0 μM)	< 25	+ (activity was measured to be greater than 10.0 μM)	< 25
CCC(CC)NC(=O)C1=CC2(CCN(CCC(C)C)CC2)c2ccccc21 [compound 40]	+ (activity was measured to be greater than 10.0 μM)	< 25	++ (activity was measured to be from 2.0 μM to 10.0 μM)	25 to 100
O=C(C1=CCC2(CCN(CC3CC4C=CC3C4)CC2)c2ccccc21)N1CCCC1 (centres unmarked) [compound 34]	+++ (activity was measured to be less than 2.0 μM)	25 to 100	+ (activity was measured to be greater than 10.0 μM)	< 25
CCOC(=O)N1CCC(N2CCC3(C=C(C(=O)NC(CC)CC)c4ccccc43)CC2)CC1 [compound 28]	++ (activity was measured to be from 2.0 μM to 10.0 μM)	25 to 100	+++ (activity was measured to be less than 2.0 μM)	25 to 100
CCC(CC)NC(=O)C1=CC2(CCNCC2)c2ccccc21 [compound 57]	+ (activity was measured to be greater than 10.0 μM)	< 25	+ (activity was measured to be greater than 10.0 μM)	< 25
CCC(CC)NC(=O)C1=CC2(CCN(CC3CCCCC3)CC2)c2ccccc21 [Compound No. 68, 1′-(cyclohexylmethyl)-N-(pentan-3-yl)spiro[indene-1,4′-piperidine]-3-carboxamide]	–	< 25	–	25 to 100
CNC(=O)C1=CC2(CCN(C3C[C@@H]4CC[C@@H]3C4)CC2)c2ccccc21 (stereo in doubt) [Compound No. 38, 1′-(bicyclo[2.2.1]heptan-2-yl)-N-methylspiro[indene-1,4′-piperidine]-3-carboxamide]	+ (activity was measured to be greater than 10.0 μM)	25 to 100	+++ (activity was measured to be less than 2.0 μM)	25 to 100
CNC(=O)C1=CC2(CCN(C3CCCCCC3)CC2)c2ccccc21 [compound 41]	++ (activity was measured to be from 2.0 μM to 10.0 μM)	25 to 100	+++ (activity was measured to be less than 2.0 μM)	25 to 100
CCOC(=O)N1CCC(N2CCC3(C=C(C(=O)NC)c4ccccc43)CC2)CC1 [compound 65]	+++ (activity was measured to be less than 2.0 μM)	25 to 100	+++ (activity was measured to be less than 2.0 μM)	25 to 100
O=C(NC1CC1)C1=CC2(CCN(CC3CC4C=CC3C4)CC2)c2ccccc21 (centres unmarked) [compound 32]	+ (activity was measured to be greater than 10.0 μM)	25 to 100	+++ (activity was measured to be less than 2.0 μM)	25 to 100
CCC(CC)NC(=O)C1=CC2(CCN(C3CCN(C(=O)N4CCOCC4)CC3)CC2)c2ccccc21 [compound 18]	+ (activity was measured to be greater than 10.0 μM)	< 25	+ (activity was measured to be greater than 10.0 μM)	< 25
CCC(CC)NC(=O)C1=CC2(CCN(C3CCCCCC3)CC2)c2ccccc21 [Compound No. 3]	+ (activity was measured to be greater than 10.0 μM)	< 25	++ (activity was measured to be from 2.0 μM to 10.0 μM)	25 to 100
CNC(=O)C1=CC2(CCN(CC3CC4C=CC3C4)CC2)c2ccccc21 (centres unmarked) [compound 69]	+++ (activity was measured to be less than 2.0 μM)	25 to 100	+++ (activity was measured to be less than 2.0 μM)	25 to 100
